For 33 molecules, melting point results are on record in US6710060B2, “4-hydroxypiperidine derivatives having antiarrhythmic activity” (Mochida Pharmaceutical Co., Ltd., priority 1999, dated 2004).

Structures can show the parent of a compound that is named as a salt.

For the molecule `CCCCOc1ccc(N(C)CCC2(O)CCN(Cc3ccc4c(c3)OCO4)CC2)cc1` (as salt: hydrochloride) [Example 162, 4-[2-[N-(4-n-butoxyphenyl)-N-methylamino]ethyl]-1-(3,4-methylenedioxyphenylmethyl)piperidin-4-ol dihydrochloride], the melting point – broadly, the temperature of the solid-liquid transition – is 211 °C (dec.).

Take `CCCCOc1ccc(N(C)CCC2(O)CCN(CCc3ccc(F)cc3)CC2)cc1` (as salt: hydrochloride) [Example 176, 4-[2-[N-(4-n-butoxyphenyl)-N-methylamino]ethyl]-1-[2-(4-fluorophenyl)ethyl]piperidin-4-ol dihydrochloride]: the melting point is 207 °C (dec.). Under `CCCCOc1ccc(N(C)CCC2(O)CCN(Cc3ccc(F)cc3)CC2)cc1` (as salt: hydrochloride) [Example 177, 4-[2-[N-(4-n-butoxyphenyl)-N-methylamino]ethyl]-1(4-fluorophenylmethyl)piperidin-4-ol dihydrochloride] stands 209 °C (dec.); under `CCCCOc1ccc(N(C)CCC2(O)CCN(CCc3ccc(F)cc3F)CC2)cc1` (as salt: hydrochloride) [Example 183, 4-[2-[N-(4-n-butoxyphenyl)-N-methylamino]ethyl]-1-[2-(2,4-difluorophenyl)ethyl]piperidin-4-ol dihydrochloride], 209 °C (dec.); under `CCCCOc1ccc(N(C)CC(O)C2(O)CCN(CCc3ccc(F)cc3)CC2)cc1` (stereo not drawn) (as salt: hydrochloride) [Example 196, 4-[2-[N-(4-n-butoxyphenyl)-N-methylamino]-1-hydroxyethyl]-1-[2-(4-fluorophenyl)ethyl]piperidin-4-ol dihydrochloride], 191.2 to 198.7 °C. The result for `CCCCOc1ccc(N(C)CCC2(O)CCN(CC(O)c3ccc(F)cc3)CC2)cc1` (stereo not drawn) (as salt: hydrochloride) [Example 198, 4-[2-[N-(4-n-butoxyphenyl)-N-methylamino]ethyl]-1-[2-(4-fluorophenyl)-2-hydroxyethyl]piperidin-4-ol dihydrochloride] reads 174.9 to 184.5 °C; that for `CCCCOc1ccc(N(C)CCC2(OC)CCN(Cc3ccccc3)CC2)cc1` (as salt: hydrochloride) [Example 201, 1-benzyl-4-methoxy-4-[2-[N-(4-n-butoxyphenyl)-N-methylamino]ethyl]piperidine dihydrochloride], 215 °C (dec.); that for `CC(C)Oc1ccc(N(C)CCC2(O)CCN(Cc3ccc(Br)cc3)CC2)cc1` (as salt: hydrochloride) [Example 220, 1-(4-bromophenylmethyl)-4-[2-[N-methyl-N-(4-isopropoxyphenyl)amino]ethyl]piperidin-4-ol dihydrochloride], 224.4 to 226.2 °C. Under `CC(C)Oc1ccc(N(C)CCC2(O)CCN(Cc3ccc(C(F)(F)F)cc3)CC2)cc1` (as salt: hydrochloride) [Example 221, 4-[2-[N-methyl-N-(4-isopropoxyphenyl)amino]ethyl]-1-[4-(trifluoromethyl)phenylmethyl]piperidin-4-ol dihydrochloride] stands 241.2 to 242.6 °C; under `CC(C)Oc1ccc(N(C)CCC2(O)CCN(Cc3ccc(C#N)cc3)CC2)cc1` (as salt: hydrochloride) [Example 226, 1-(4-cyanophenylmethyl)-4-[2-[N-methyl-N-(4-isopropoxyphenyl)amino]ethyl]piperidin-4-ol dihydrochloride], 220.8 to 222.2 °C. `CC(C)Oc1ccc(N(C)CCC2(O)CCN(Cc3ccc(OC(F)(F)F)cc3)CC2)cc1` (as salt: hydrochloride) [Example 236, 4-[2-[N-methyl-N-(4-isopropoxyphenyl)amino]ethyl]-1-(4-trifluoromethoxyphenylmethyl)piperidin-4-ol dihydrochloride] returned a melting point of 233.2 to 234.9 °C.

In turn, `CC(C)Oc1ccc(N(C)CCC2(O)CCN(Cc3ccc(Br)cc3F)CC2)cc1` (as salt: hydrochloride) [Example 240, 1-(4-bromo-2-fluorophenylmethyl)-4-[2-[N-methyl-N-(4-isopropoxyphenyl)amino]ethyl]piperidin-4-ol dihydrochloride] came in with a melting point of 228.3 to 229.1 °C. The result for `CC(C)Oc1ccc(N(C)CCC2(O)CCN(Cc3cccs3)CC2)cc1` (as salt: hydrochloride) [Example 254, 4-[2-[N-methyl-N-(4-isopropoxyphenyl)amino]ethyl]-1(2-thienylmethyl)piperidin-4-ol dihydrochloride] reads 216.5 to 217.5 °C; that for `CCCCCOc1ccc(N(C)CCC2(O)CCN(Cc3ccccc3)CC2)cc1` [Example 15, 1-Benzyl-4-[2-[N-methyl-N-(4-n-pentyloxyphenyl)-amino]ethyl]piperidin-4-ol], 58.5 to 60.3 °C; that for `CC(C)COc1ccc(N(C)CCC2(O)CCN(Cc3ccccc3)CC2)cc1` [Example 16, 1-Benzyl-4-[2-[N-(4-isobutoxyphenyl)-N-methylamino]-ethyl]piperidin-4-ol], 50.6 to 52.5 °C. Under `CN(CCC1(O)CCN(Cc2ccccc2)CC1)c1ccc(OC2CCC2)cc1` [Example 17, 1-Benzyl-4-[2-[N-(4-cyclobutoxyphenyl)-N-methylamino]-ethyl]piperidin-4-ol] stands 68.6 to 69.8 °C. Under `CCCCOc1ccc(N(C)CCC2(O)CCN(Cc3ccc(Cl)cc3)CC2)cc1` [Example 20, 4-[2-[N-(4-n-butoxyphenyl)-N-methylamino]ethyl]-1-(4-chlorophenylmethyl)piperidin-4-ol] stands 67.7 to 68.3 °C; under `CCCCOc1ccc(N(C)CCC2(O)CCN(Cc3ccc(C(F)(F)F)cc3)CC2)cc1` [Example 21, 4-[2-[N-(4-n-butoxyphenyl)-N-methylamino]ethyl]-1-[4-(trifluoromethyl)phenylmethyl]piperidin-4-ol], 77.4 to 78.2 °C; under `CCCCOc1ccc(N(C)CCC2(O)CCN(Cc3ccc(C#N)cc3)CC2)cc1` [Example 22, 4-[2-[N-(4-n-butoxyphenyl)-N-methylamino]ethyl]-1(4-cyanophenylmethyl)piperidin-4-ol], 83.5 to 85.5 °C. Molecule `CCCCOc1ccc(N(C)CCC2(O)CCN(Cc3ccc(C(=O)OC)cc3)CC2)cc1` [Example 23, 4-[2-[N-(4-n-butoxyphenyl)-N-methylamino]ethyl]-1-(4-methoxycarbonylphenylmethyl)piperidin-4-ol] had a melting point of 82.5 to 82.8 °C. The result for `CCCCOc1ccc(N(C)CCC2(O)CCN(Cc3ccc(N(C)C)cc3)CC2)cc1` [Example 24, 4-[2-[N-(4-n-butoxyphenyl)-N-methylamino]ethyl]-1-[4-(dimethylamino)phenylmethyl]piperidin-4-ol] reads 71.3 to 73 °C; that for `CCCCOc1ccc(N(C)CCC2(O)CCN(Cc3cccc(F)c3)CC2)cc1` [Example 29, 4-[2-[N-(4-n-butoxyphenyl)-N-methylamino]ethyl]-1-(3-fluorophenylmethyl)piperidin-4-ol], 46.7 to 47.2 °C; that for `CCCCOc1ccc(N(C)CCC2(O)CCN(Cc3ccc(F)c(F)c3)CC2)cc1` [Example 30, 4-[2-[N-(4-n-butoxyphenyl)-N-methylamino]ethyl]-1-(3,4-difluorophenylmethyl)piperidin-4-ol], 49.8 to 50.5 °C. For `CCCCOc1ccc(N(C)CCC2(O)CCN(Cc3ccc(C)cc3)CC2)cc1` [Example 31, 4-[2-[N-(4-n-butoxyphenyl)-N-methylamino]ethyl]-1(4-methylphenylmethyl)piperidin-4-ol], the melting point fell in the range of 73.3 to 75 °C.

Molecule `CCCCOc1ccc(N(C)CCC2(O)CCN(C3Cc4ccccc4C3)CC2)cc1` [Example 32, 4-[2-[N-(4-n-butoxyphenyl)-N-methylamino]ethyl]-1-(2,3-dihydro-1H-indene-2-yl)piperidin-4-ol] yielded a melting point of 94.4 to 94.6 °C.

The molecule `CCCCOc1ccc(N(C)CCC2(O)CCN(CC(O)c3ccccc3)CC2)cc1` (stereo not drawn) [Example 54, 4-[2-[N-(4-n-butoxyphenyl)-N-methylamino]-ethyl]-1-(2-phenyl-2-hydroxyethyl)piperidin-4-ol] came in with a melting point of 104 to 104.8 °C. As to `CCCCOc1ccc(N(C)CCC2(O)CCN(CC(O)c3ccc(F)cc3)CC2)cc1` (stereo not drawn) [Example 55, 4-[2-[N-(4-n-butoxyphenyl)-N-methylamino]ethyl]-1-[2-(4-fluorophenyl)-2-hydroxyethyl]piperidin-4-ol], the melting point lay within 92.8 to 94.5 °C.

In turn, `CCCCOc1ccc(N(CCC2(O)CCN(Cc3ccccc3)CC2)C(C)=O)cc1` [Example 56, 4-[2-[N-acetyl-N-(4-n-butoxyphenyl)amino]-ethyl]-1-benzylpiperidin-4-ol] had a melting point of 89.7 to 90.6 °C. Under `CCCCOc1ccc(N(CCC2(O)CCN(CCc3ccc(F)cc3)CC2)C(C)=O)cc1` [Example 57, 4-[2-[N-acetyl-N-(4-n-butoxyphenyl)amino]ethyl]-1-[2-(4-fluorophenyl)ethyl]piperidin-4-ol] stands 121.6 to 122.1 °C; under `CC(C)Oc1ccc(N(C)CCC2(O)CCN(Cc3ccc(Br)cc3)CC2)cc1` [Example 73, 1-(4-bromophenylmethyl)-4-[2-[N-methyl-N-(4-isopropoxyphenyl)amino]ethyl]piperidin-4-ol], 104.3 to 105 °C; under `CC(C)Oc1ccc(N(C)CCC2(O)CCN(Cc3ccc(C(F)(F)F)cc3)CC2)cc1` [Example 74, 4-[2-[N-methyl-N-(4-isopropoxyphenyl)amino]ethyl]-1-[4-(trifluoromethyl)phenylmethyl]piperidin-4-ol], 109.9 to 110.6 °C. The result for `COc1ccc(CN2CCC(O)(CCN(C)c3ccc(OC(C)C)cc3)CC2)cc1` [Example 76, 1-(4-methoxyphenylmethyl)-4-[2-[N-methyl-N-(4-isopropoxyphenyl)amino]ethyl]piperidin-4-ol] reads 50.8 to 52.4 °C. In turn, `COc1cccc(CN2CCC(O)(CCN(C)c3ccc(OC(C)C)cc3)CC2)c1` [Example 77, 1-(3-methoxyphenylmethyl)-4-[2-[N-methyl-N-(4-isopropoxyphenyl)amino]ethyl]piperidin-4-ol] displayed a melting point of 45.1 to 46.5 °C.
